Converted amounts (≈) assume the structure as drawn.
How the values were obtained:
[1] = Inhibition of bovine brain PDE1 using fluorescent labeled cGMP as substrate after 15 mins by IMAP assay; parameters: species or system Bos taurus
[2] = molecular target: cAMP and cAMP-inhibited cGMP 3',5'-cyclic phosphodiesterase 10A (Homo sapiens, UniProt Q9Y233); experiment: Inhibition of recombinant full lenght human PDE10A using fluorescent labeled cAMP as substrate after 15 mins by IMAP assay
[3] = molecular target: 3',5'-cyclic-AMP phosphodiesterase 4A (Homo sapiens, UniProt P27815); experiment: Inhibition of recombinant full lenght human PDE4A using fluorescent labeled cAMP as substrate after 15 mins by IMAP assay
3',5'-cyclic-AMP phosphodiesterase 4A, sequence (P27815 whole entry): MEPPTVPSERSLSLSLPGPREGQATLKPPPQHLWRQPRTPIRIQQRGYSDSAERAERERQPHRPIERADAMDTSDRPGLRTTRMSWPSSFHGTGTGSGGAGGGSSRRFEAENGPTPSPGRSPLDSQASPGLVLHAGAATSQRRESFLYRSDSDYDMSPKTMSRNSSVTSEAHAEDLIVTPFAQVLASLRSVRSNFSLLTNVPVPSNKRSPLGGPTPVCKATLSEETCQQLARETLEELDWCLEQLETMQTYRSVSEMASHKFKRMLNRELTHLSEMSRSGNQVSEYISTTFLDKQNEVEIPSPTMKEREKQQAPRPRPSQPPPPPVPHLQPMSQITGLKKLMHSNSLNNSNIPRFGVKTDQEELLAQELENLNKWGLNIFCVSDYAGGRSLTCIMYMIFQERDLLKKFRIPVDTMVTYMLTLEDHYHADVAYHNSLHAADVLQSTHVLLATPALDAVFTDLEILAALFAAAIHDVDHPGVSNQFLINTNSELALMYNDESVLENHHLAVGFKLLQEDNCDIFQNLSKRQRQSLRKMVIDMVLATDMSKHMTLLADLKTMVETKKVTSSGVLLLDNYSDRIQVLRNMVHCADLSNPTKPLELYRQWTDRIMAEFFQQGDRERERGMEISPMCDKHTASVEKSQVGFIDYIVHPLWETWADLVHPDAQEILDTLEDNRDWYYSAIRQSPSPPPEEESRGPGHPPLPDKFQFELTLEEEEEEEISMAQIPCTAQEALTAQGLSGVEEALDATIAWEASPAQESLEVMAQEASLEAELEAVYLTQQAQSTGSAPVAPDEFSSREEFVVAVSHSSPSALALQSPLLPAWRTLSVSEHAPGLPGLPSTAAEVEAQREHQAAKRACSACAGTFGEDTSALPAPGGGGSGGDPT

[4] = molecular target: cGMP-dependent 3',5'-cyclic phosphodiesterase (Homo sapiens, UniProt O00408); experiment: Inhibition of recombinant full length human PDE2A using fluorescent labeled cAMP as substrate after 15 mins by IMAP assay
cGMP-dependent 3',5'-cyclic phosphodiesterase, sequence (O00408 whole entry): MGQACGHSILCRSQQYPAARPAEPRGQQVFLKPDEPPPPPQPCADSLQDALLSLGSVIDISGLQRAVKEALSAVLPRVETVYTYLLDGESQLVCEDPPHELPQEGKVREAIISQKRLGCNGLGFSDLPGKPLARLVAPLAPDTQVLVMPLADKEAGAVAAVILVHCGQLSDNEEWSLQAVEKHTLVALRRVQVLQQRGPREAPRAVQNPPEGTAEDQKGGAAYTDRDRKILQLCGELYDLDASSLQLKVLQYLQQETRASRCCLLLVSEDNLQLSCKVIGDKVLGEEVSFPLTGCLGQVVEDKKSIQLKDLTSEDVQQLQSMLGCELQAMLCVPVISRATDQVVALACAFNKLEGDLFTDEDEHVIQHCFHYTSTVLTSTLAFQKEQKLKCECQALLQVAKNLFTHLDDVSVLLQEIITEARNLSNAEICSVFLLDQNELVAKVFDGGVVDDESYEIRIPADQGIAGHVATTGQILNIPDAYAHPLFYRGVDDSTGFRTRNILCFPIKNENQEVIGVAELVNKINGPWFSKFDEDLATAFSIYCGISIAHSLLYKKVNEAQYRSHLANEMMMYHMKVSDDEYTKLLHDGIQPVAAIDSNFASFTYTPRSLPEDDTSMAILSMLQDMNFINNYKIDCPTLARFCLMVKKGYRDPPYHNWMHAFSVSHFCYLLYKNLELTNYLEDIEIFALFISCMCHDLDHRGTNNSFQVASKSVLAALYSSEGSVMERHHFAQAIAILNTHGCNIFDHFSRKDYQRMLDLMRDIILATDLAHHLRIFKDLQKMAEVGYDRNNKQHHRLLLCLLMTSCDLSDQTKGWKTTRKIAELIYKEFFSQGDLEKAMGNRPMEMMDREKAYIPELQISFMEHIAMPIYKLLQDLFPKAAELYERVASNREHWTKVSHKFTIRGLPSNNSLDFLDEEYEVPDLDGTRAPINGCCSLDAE

[5] = molecular target: cGMP-inhibited 3',5'-cyclic phosphodiesterase 3B (Homo sapiens, UniProt Q13370); experiment: Inhibition of recombinant full length human PDE3B using fluorescent labeled cAMP as substrate after 15 mins by IMAP assay
cGMP-inhibited 3',5'-cyclic phosphodiesterase 3B, sequence (Q13370 whole entry): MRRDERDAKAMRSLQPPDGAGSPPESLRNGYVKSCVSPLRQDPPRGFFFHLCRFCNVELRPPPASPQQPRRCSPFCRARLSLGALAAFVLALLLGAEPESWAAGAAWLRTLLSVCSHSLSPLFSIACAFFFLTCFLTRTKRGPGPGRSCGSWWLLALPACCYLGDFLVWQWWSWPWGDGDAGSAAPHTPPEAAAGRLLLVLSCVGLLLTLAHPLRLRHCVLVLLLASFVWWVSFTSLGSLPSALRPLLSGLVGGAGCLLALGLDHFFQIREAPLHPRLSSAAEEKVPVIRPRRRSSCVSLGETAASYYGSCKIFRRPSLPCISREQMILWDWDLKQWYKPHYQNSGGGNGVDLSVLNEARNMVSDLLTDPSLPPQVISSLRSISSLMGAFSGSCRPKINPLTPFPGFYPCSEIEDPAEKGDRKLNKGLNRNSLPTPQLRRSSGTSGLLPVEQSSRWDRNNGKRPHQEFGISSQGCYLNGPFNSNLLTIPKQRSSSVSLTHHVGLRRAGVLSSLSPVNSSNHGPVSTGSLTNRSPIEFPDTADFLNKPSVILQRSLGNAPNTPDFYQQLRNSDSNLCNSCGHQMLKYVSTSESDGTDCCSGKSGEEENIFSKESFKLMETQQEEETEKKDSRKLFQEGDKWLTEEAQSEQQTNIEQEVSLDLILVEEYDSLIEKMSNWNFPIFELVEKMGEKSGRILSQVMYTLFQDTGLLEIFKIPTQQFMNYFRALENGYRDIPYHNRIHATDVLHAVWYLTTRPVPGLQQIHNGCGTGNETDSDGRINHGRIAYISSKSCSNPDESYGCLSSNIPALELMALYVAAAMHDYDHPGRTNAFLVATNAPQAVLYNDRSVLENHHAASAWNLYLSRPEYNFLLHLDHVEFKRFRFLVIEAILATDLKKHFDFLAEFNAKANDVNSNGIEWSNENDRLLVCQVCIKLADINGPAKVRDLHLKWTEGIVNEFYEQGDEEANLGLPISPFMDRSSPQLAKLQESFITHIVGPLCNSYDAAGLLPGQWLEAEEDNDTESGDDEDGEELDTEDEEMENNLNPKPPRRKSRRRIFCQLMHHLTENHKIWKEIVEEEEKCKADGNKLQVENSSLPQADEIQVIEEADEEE

[6] = molecular target: cGMP-specific 3',5'-cyclic phosphodiesterase (Homo sapiens, UniProt O76074); experiment: Inhibition of recombinant full lenght human PDE5A using fluorescent labeled cGMP as substrate after 15 mins by IMAP assay
[7] = Inhibition of bovine retinal PDE6 using fluorescent labeled cGMP as substrate after 15 mins by IMAP assay
[8] = molecular target: 3',5'-cyclic-AMP phosphodiesterase 7B (Homo sapiens, UniProt Q9NP56); experiment: Inhibition of recombinant full lenght human PDE7B using fluorescent labeled cAMP as substrate after 15 mins by IMAP assay
3',5'-cyclic-AMP phosphodiesterase 7B, sequence (Q9NP56 whole entry): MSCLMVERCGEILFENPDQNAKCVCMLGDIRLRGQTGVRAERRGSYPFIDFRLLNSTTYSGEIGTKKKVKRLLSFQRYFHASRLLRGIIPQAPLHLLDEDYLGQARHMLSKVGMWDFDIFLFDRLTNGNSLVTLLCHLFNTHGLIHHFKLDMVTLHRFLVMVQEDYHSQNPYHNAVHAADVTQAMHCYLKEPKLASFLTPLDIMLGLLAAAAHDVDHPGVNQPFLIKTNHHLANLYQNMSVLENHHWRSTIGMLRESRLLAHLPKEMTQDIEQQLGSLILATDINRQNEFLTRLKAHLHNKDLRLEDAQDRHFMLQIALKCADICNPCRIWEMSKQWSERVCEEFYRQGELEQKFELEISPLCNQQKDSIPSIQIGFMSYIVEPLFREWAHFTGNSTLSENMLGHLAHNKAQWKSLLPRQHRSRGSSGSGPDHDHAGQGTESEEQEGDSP

[9] = molecular target: High affinity cAMP-specific and IBMX-insensitive 3',5'-cyclic phosphodiesterase 8A (Homo sapiens, UniProt O60658); experiment: Inhibition of recombinant full lenght human PDE8A using fluorescent labeled cAMP as substrate after 15 mins by IMAP assay
[10] = molecular target: High affinity cGMP-specific 3',5'-cyclic phosphodiesterase 9A (Homo sapiens, UniProt O76083); experiment: Inhibition of recombinant full lenght human PDE9A using fluorescent labeled cGMP as substrate after 15 mins by IMAP assay
High affinity cGMP-specific 3',5'-cyclic phosphodiesterase 9A, sequence (O76083 whole entry): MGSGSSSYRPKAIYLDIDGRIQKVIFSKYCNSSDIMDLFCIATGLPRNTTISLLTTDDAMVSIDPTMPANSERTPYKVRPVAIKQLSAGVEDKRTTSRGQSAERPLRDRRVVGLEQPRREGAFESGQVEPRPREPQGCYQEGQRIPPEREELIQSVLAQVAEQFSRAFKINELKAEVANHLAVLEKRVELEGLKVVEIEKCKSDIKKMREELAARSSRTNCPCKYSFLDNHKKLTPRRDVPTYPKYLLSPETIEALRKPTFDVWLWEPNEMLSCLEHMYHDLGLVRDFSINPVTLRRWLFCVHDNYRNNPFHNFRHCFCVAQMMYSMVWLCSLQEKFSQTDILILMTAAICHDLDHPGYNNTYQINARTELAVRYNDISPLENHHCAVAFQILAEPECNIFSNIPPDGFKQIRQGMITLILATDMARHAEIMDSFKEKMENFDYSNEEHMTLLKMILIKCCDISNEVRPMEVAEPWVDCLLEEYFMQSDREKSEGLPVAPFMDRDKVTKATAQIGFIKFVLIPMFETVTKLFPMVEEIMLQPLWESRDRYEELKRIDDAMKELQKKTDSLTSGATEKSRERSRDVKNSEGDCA

[11] = Lipophilicity, logD of compound at pH 7.4; assay type: physicochemical; conditions: buffer
[12] = Lipophilicity, logD of compound at pH 1.7; assay type: physicochemical; conditions: buffer
[13] = Solubility of compound in PBS; assay type: physicochemical
[14] = Cmax in C57BL/6 mouse plasma at 10 mg/kg administered through oral gavage; assay type: ADME, organism-based; parameters: dose 10 mg/kg, route oral
[15] = Cmax in C57BL/6 mouse brain at 10 mg/kg administered through oral gavage; assay type: ADME, organism-based; parameters: dose 10 mg/kg, route oral
[16] = AUClast in C57BL/6 mouse plasma at 10 mg/kg administered through oral gavage; assay type: ADME, organism-based; parameters: dose 10 mg/kg, time 0 - last, route oral
[17] = AUClast in C57BL/6 mouse brain at 10 mg/kg administered through oral gavage; assay type: ADME, organism-based; parameters: dose 10 mg/kg, time 0 - last, route oral
[18] = Half time in Sprague-Dawley rat at 9.75 mg/kg administered through oral gavage; assay type: ADME, organism-based; conditions: in vivo
[19] = Cmax in Sprague-Dawley rat at 9.75 mg/kg administered through oral gavage; assay type: ADME, organism-based; parameters: dose 9.75 mg/kg, route oral; conditions: in vivo
[20] = Tmax in Sprague-Dawley rat at 9.75 mg/kg administered through oral gavage; assay type: ADME, organism-based; conditions: in vivo
[21] = AUC(infinity) in Sprague-Dawley rat at 9.75 mg/kg administered through oral gavage; assay type: ADME, organism-based; parameters: dose 9.75 mg/kg, route oral, time infinity; conditions: in vivo
[22] = Intrinsic clearance in human liver microsomes; assay type: ADME; conditions: read-out: CLH
[23] = Half time in Sprague-Dawley rat at 1 mg/kg, iv; assay type: ADME, organism-based; conditions: in vivo
[24] = Volume of distribution in Sprague-Dawley rat at 1 mg/kg, iv; assay type: ADME, organism-based; conditions: in vivo
[25] = Clearance in Sprague-Dawley rat at 1 mg/kg, iv; assay type: ADME, organism-based; conditions: in vivo
[26] = AUC(infinity) in Sprague-Dawley rat at 1 mg/kg, iv; assay type: ADME, organism-based; parameters: dose 1 mg/kg, time infinity, route intravenous; conditions: in vivo
[27] = Oral bioavailability in Sprague-Dawley rat at 9.75 mg/kg administered through gavage; assay type: ADME, organism-based; conditions: in vivo
Rattus norvegicus = experiment: Increase in cognitive performance in ip dosed Sprague-Dawley rat after 60 mins by novel object recognition test; assay type: functional; conditions: 1 h, read-out: MED
[28] = Selectivity ratio of Ki for recombinant full lenght human PDE4A to bovine brain PDE1
in vivo = conditions: C57BL/6, mouse, brain/plasma

cAMP and cAMP-inhibited cGMP 3',5'-cyclic phosphodiesterase 10A, sequence (Q9Y233 whole entry): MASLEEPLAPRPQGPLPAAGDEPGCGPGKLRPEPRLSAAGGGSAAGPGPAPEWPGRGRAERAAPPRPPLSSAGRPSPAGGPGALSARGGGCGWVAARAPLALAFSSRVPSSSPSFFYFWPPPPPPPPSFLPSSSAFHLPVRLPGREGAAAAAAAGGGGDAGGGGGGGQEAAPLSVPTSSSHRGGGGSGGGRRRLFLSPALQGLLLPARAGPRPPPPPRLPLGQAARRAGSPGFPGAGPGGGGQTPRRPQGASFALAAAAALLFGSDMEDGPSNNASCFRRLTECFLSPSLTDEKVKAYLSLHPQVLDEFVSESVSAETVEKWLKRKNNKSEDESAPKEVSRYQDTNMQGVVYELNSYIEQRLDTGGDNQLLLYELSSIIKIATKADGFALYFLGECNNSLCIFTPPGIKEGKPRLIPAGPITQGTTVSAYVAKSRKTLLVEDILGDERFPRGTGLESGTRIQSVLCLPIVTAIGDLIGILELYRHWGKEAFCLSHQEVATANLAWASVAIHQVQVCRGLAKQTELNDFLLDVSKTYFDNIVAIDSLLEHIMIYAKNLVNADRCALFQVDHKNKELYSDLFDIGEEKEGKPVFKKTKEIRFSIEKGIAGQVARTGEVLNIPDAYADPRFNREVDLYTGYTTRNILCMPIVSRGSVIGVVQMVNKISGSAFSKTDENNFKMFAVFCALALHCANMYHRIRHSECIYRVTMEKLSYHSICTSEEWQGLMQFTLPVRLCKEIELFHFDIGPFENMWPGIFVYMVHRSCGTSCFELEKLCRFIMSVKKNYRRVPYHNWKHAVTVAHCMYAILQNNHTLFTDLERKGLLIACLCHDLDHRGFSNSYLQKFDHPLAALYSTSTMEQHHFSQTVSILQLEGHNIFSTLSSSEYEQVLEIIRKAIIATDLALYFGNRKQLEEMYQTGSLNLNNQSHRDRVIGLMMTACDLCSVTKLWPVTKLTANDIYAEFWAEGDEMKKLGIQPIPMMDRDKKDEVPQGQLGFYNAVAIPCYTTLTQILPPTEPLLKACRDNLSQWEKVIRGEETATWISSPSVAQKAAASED

SMILES	Ki [1] [pM]	Ki [2] [µM]	Ki [3] [µM]	Ki [4] [µM]	Ki [5] [µM]	Ki [6] [µM]	Ki [7] [µM]	Ki [8] [µM]	logD [11]	logD [12]	solubility [13] [µM]	Cmax [14] [ng/mL]	Cmax [15] [ng/mL]	AUC(0-t) [16] [ng·h/mL]	AUC(0-t) [17] [ng·h/mL]	half-life [18] [h]	Cmax [19] [ng/mL]	Tmax [20] [h]	AUC(0-inf) [21] [ng·h/mL]	CLint scaled [22] [mL/min/kg]	other results
CN1C(=O)c2c(nn(Cc3ccc(-c4ccccc4)cc3)c2Nc2ccccc2)N2C1=N[C@@H]1CCC[C@@H]12	850	7.9	1.3	37	1.5	1.6	1.1	0.91	> 5	1.92	2 (≈ 0.977 µg/mL)	130	474	286	542	3.1	102	4	816		Ki [9]: 33 µM; Ki [10]: > 100 µM
CN1C(=O)c2c(nn(Cc3ccc(C(F)(F)F)nc3)c2Nc2ccccc2)N2C1=N[C@@H]1CCC[C@@H]12	1900	19	1.2	> 100	42	1.2	5.5	6.1													Ki [9]: > 100 µM; Ki [10]: > 100 µM
CN1C(=O)c2c(nn(Cc3ccc(-c4cccc(F)n4)cc3)c2Nc2ccccc2)N2C1=N[C@@H]1CCC[C@@H]12.O=P(O)(O)O [LENRISPODUN PHOSPHATE]	58					0.63			4.41	1.27	22	490	387	826	588	1.5	252	0.75	802	78	half-life [23]: 1.4 h; Vd [24]: 6.83 L/kg; clearance [25]: 55 mL/min/kg; AUC(0-inf) [26]: 300 ng·h/mL; bioavailability [27]: 28%; minimal effective dose (Rattus norvegicus): 3 mg/kg
CN1C(=O)c2c(nn(Cc3ccc(-c4cccc(F)n4)cc3)c2Oc2ccccc2)N2C1=N[C@@H]1CCC[C@@H]12	3000		0.25						4.61	1.05	8 (≈ 4.07 µg/mL)	165	170	210	192					214	Ratio Ki [28]: 83; Kp (in vivo): 0.9

More lines, main results first:

Ki [1] [pM]	Ki [2] [µM]	Ki [3] [µM]	Ki [4] [µM]	Ki [5] [µM]	Ki [6] [µM]	Ki [7] [µM]	Ki [8] [µM]	logD [11]	logD [12]	solubility [13] [µM]	Cmax [14] [ng/mL]	Cmax [15] [ng/mL]	AUC(0-t) [16] [ng·h/mL]	AUC(0-t) [17] [ng·h/mL]	half-life [18] [h]	Cmax [19] [ng/mL]	Tmax [20] [h]	AUC(0-inf) [21] [ng·h/mL]	CLint scaled [22] [mL/min/kg]	SMILES	other results
880	5.4	0.93	39	30	0.59	1.6	1.2	4.47	1.16	35 (≈ 16.8 µg/mL)	60	285	122	548	1.5	75	0.25	214	139	CN1C(=O)c2c(nn(Cc3ccc(C(F)(F)F)cc3)c2Nc2ccccc2)N2C1=N[C@@H]1CCC[C@@H]12	Ki [9]: 54 µM; Ki [10]: 50 µM; half-life [23]: 1.4 h; Vd [24]: 7.44 L/kg; clearance [25]: 62 mL/min/kg; AUC(0-inf) [26]: 271 ng·h/mL; bioavailability [27]: 8%
85	2.7	0.24	24	1.2	0.6	0.43	0.3	3.54	-0.58	> 100	48	28	65	21	1.5	158	0.5	636	189	CN1C(=O)c2c(nn(Cc3ccc(-c4ccccn4)cc3)c2Nc2ccccc2)N2C1=N[C@@H]1CCC[C@@H]12	Ki [9]: 8.2 µM; Ki [10]: 6.1 µM; half-life [23]: 0.72 h; Vd [24]: 2.48 L/kg; clearance [25]: 40 mL/min/kg; AUC(0-inf) [26]: 420 ng·h/mL; bioavailability [27]: 16%
630		0.42						4.57	1.11	31 (≈ 15.5 µg/mL)	21	133	24	166	2.2	42	0.5	164	73	CN1C(=O)c2c(nn(Cc3ccc(C(F)(F)F)cc3)c2Nc2ccc(F)cc2)N2C1=N[C@@H]1CCC[C@@H]12	Ratio Ki [28]: 667; half-life [23]: 1.5 h; Vd [24]: 7.48 L/kg; clearance [25]: 57 mL/min/kg; AUC(0-inf) [26]: 292 ng·h/mL; bioavailability [27]: 6%; Kp (in vivo): 6.9
